Reference: US8399681B2, “Substituted aminothiazolone indazoles as estrogen related receptor-alpha modulators” (Janssen Pharmaceutica NV, priority 2009, dated 2013)
pEC50: −log10 of the molar value.

Tests used:
[1] = molecular target: T1, ERR1 (also known as ERR-α or ERR-1) (Homo sapiens, UniProt P11474); experiment: TR-FRET assay (disruption of co-activator peptide binding); format: biochemical; conditions: 6His-tagged ERR1 LBD, GST-hSRC2 co-activator polypeptide; average of 3 independent experiments
T1 sequence (P11474 193-421 limits assumed): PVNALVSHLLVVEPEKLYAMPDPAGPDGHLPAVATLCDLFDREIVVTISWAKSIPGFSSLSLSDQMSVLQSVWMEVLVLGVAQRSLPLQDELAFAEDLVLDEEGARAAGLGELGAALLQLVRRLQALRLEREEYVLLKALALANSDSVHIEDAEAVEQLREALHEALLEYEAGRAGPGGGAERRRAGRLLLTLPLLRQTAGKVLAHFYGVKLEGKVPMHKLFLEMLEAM
Outline: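 Compound-induced loss of co-activator recruitment, read by time-resolved FRET (excitation 340 nm; 615 and 665 nm emission) after 4-18 h at 25 °C. Reagents: 6 nM ERR1LBD, 6 nM GST-SRC-2, 30 nM Eu cryptate, 7.5 nM XL665, pH 8 Tris buffer. Values: hyperbolic fits averaged over 3 independent runs.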

Zucker fa/fa male rats = experiment: Zucker fa/fa Rat Model Assay; format: in vivo; conditions: dosed orally once a day for 4 days, blood collected at day 5
Text: Zucker fa/fa is a monogenic model of frank diabetes due to a mutation on the fa gene truncating the leptin receptor and preventing its interaction with its peptide hormone. This mutation results in a hyperphagic phenotype and the rodent develops obesity, hyperlipidemia, fasting hyperglycemia and insulin resistance. Zucker fa/fa male rats were received at four weeks of age and allowed to acclimate for one week. At five weeks of age the animals were single housed in cages in a temperature-controlled room with 12-hour light/dark cycle. The rats were allowed ad libitum access to water and food and throughout the study were maintained on a Purina 5008 diet. Animals were sorted based primarily on fed insulin levels and circulating triglycerides. Animals were dosed orally once a day in the morning for 4 days. The vehicle used was either 20% HPβCD (Hydroxypropyl Beta Cyclodextrin) or 15% Vitamin E/30% PEG-400 (Polyethylene Glycol 400). Fed insulin and triglycerides were measured using blood collected from the tail vein at day 5. Serum plasma samples were prepared by centrifugation in EDTA (Ethylenediaminetetraacetic acid) containing tubes, transferred into 96 well plates and stored at −80° C.

Row | Compound | pEC50 [1] | % Lowering Fed Insulin Levels (Zucker fa/fa male rats) [%] | % Lowering Fed Triglyceride Levels (Zucker fa/fa male rats) [%]
1 | O=C1N=C(N2CCOC[C@H]2CO)S/C1=C\c1ccc2c(cnn2Cc2ccc(Cl)cc2C(F)(F)F)c1 [Example 142, 5-[1-(4-Chloro-2-trifluoromethyl-benzyl)-1H-indazol-5-ylmethylene]-2-(3(R)-hydroxymethyl-morpholin-4-yl)-thiazol-4-one] | 7.70 | 63 | 55
2 | O=C(O)C1=CCN(C2=NC(=O)/C(=C/c3ccc4c(cnn4Cc4ccc(Cl)cc4C(F)(F)F)c3)S2)CC1 [Example 198, 1-[5-({1-[4-Chloro-2-(trifluoromethyl)benzyl]-1H-indazol-5-yl}methylidene)-4-oxo-4,5-dihydro-1,3-thiazol-2-yl]-1,2,3,6-tetrahydropyridine-4-carboxylic acid] | 7.82 | 35 | 21
3 | O=C1N=C(N2C[C@@H]3C[C@H]2CN3CCO)S/C1=C\c1ccc2c(cnn2Cc2ccc(C(F)(F)F)cc2C(F)(F)F)c1 [Example 71, 5-[1-(2,4-Bis-trifluoromethyl-benzyl)-1H-indazol-5-ylmethylene]-2-[5-(2-hydroxy-ethyl)-2S,5S-diaza-bicyclo[2.2.1]hept-2-yl]-thiazol-4-one] | 7.79 | 37 | 25
4 | O=C1N=C(N2CC(C(=O)O)C2)S/C1=C\c1ccc2c(cnn2Cc2ccc(Cl)cc2C(F)(F)F)c1 [Example 40, 1-{5-[1-(4-Chloro-2-trifluoromethyl-benzyl)-1H-indazol-5-ylmethylene]-4-oxo-4,5-dihydro-thiazol-2-yl}-azetidine-3-carboxylic acid] | 8.10 | 75 | 60
5 | O=C1N=C(N2CCC[C@H]2CN2CCCC2)S/C1=C\c1ccc2c(cnn2Cc2ccc(Cl)cc2C(F)(F)F)c1 [Example 64, 5-[1-(4-Chloro-2-trifluoromethyl-benzyl)-1H-indazol-5-ylmethylene]-2-(S)-(2-pyrrolidin-1-ylmethyl-pyrrolidin-1-yl)-thiazol-4-one] | 7.60 | 46 | 51
6 | O=C1N=C(N2CCNCC(O)C2)S/C1=C\c1ccc2c(cnn2Cc2ccc(Cl)cc2C(F)(F)F)c1 (centres unmarked) [Example 125, 5-[1-(4-Chloro-2-trifluoromethyl-benzyl)-1H-indazol-5-ylmethylene]-2-(6-hydroxy-[1,4]diazepan-1-yl)-thiazol-4-one] | 8.00 | 30 | –
